Species: Rattus norvegicus
Assay: Open TG-GATES - Regimen: Daily Repeat
Type: toxicity, organism-based, Sprague-Dawley
Parameters: regimen Daily Repeat, gender Male, age 6 weeks
Settings: in vivo, po, route gavage; for APTT / Bas / Eos / Fbg / Hb / Ht / Lym / MCH / MCHC / MCV / Mono / Neu / PT / Plat / RBC / Ret / WBC: tissue Blood; for KIDNEY_L / KIDNEY_R / KIDNEY_TOTAL: tissue Kidney; for LIVER: tissue Liver; for ALP / ALT / AST / BUN / CRE / DBIL / GLC / IP / K / LDH / Na / PL / RALB / TBIL / TC / TG / TP / gamma-GTP: tissue Plasma
[1] = 0 mg/kg, 72 h, dose level Control, time 3 day
[2] = 0 mg/kg, […], dose level Control, time 7 day
[3] = 0 mg/kg, […], dose level Control, time 14 day
[4] = 0 mg/kg, […], dose level Control, time 28 day
[5] = 45 mg/kg, 72 h, dose level Low, time 3 day
[6] = 45 mg/kg, […], dose level Low, time 7 day
[7] = 45 mg/kg, […], dose level Low, time 14 day
[8] = 45 mg/kg, […], dose level Low, time 28 day

CC(CCc1ccccc1)NCC(O)c1ccc(O)c(C(N)=O)c1 (configuration not stated) [LABETALOL]
TERMINAL_BW [1]: 252.2 g
APTT [1]: 16.5 s
Bas [1]: 0%
Eos [1]: 1%
Fbg [1]: 295.4 mg/dL
Hb [1]: 13.4 g/dL
Ht [1]: 38.9%
Lym [1]: 75.4%
MCH [1]: 21.3 pg
MCHC [1]: 34.3%
MCV [1]: 62.2 fL
Mono [1]: 3.6%
Neu [1]: 19.6%
PT [1]: 12.8 s
Plat [1]: 116.3 x10_4/uL
RBC [1]: 627 x10_4/ul
Ret [1]: 6.4%
WBC [1]: 105.6 x10_2/uL
KIDNEY_L [1]: 1.1 g
KIDNEY_R [1]: 1.1 g
KIDNEY_TOTAL [1]: 2.2 g
LIVER [1]: 12.1 g
ALP [1]: 1730.4 IU/L
ALT [1]: 44.2 IU/L
AST [1]: 70 IU/L
BUN [1]: 15.4 mg/dL
CRE [1]: 0.2 mg/dL
DBIL [1]: 0.014 mg/dL
GLC [1]: 190.6 mg/dL
IP [1]: 7.8 mg/dL
K [1]: 4 meq/L
LDH [1]: 60.6 IU/L
Na [1]: 143.4 meq/L
PL [1]: 158 mg/dL
RALB [1]: 2.7 g/dL
TBIL [1]: 0.032 mg/dL
TC [1]: 85.6 mg/dL
TG [1]: 111.4 mg/dL
TP [1]: 5.8 g/dL
gamma-GTP [1]: 1 IU/L
TERMINAL_BW [2]: 289.5 g
TERMINAL_BW [3]: 341.4 g
TERMINAL_BW [4]: 418.9 g
APTT [2]: 17.2 s
Bas [2]: 0%
Eos [2]: 0.8%
Fbg [2]: 319.2 mg/dL
Hb [2]: 13.6 g/dL
Ht [2]: 38.7%
Lym [2]: 78.2%
MCH [2]: 21.4 pg
MCHC [2]: 35.1%
MCV [2]: 61 fL
Mono [2]: 3%
Neu [2]: 16.8%
PT [2]: 12.5 s
Plat [2]: 117.8 x10_4/uL
RBC [2]: 635.2 x10_4/ul
Ret [2]: 6%
WBC [2]: 108.5 x10_2/uL
APTT [3]: 17.8 s
Bas [3]: 0.2%
Eos [3]: 1%
Fbg [3]: 271.4 mg/dL
Hb [3]: 14.6 g/dL
Ht [3]: 42.4%
Lym [3]: 71.8%
MCH [3]: 21.1 pg
MCHC [3]: 34.4%
MCV [3]: 61.5 fL
Mono [3]: 2.8%
Neu [3]: 23.8%
PT [3]: 12.8 s
Plat [3]: 104.1 x10_4/uL
RBC [3]: 689 x10_4/ul
Ret [3]: 4.5%
WBC [3]: 82.7 x10_2/uL
APTT [4]: 18.5 s
Bas [4]: 0.6%
Eos [4]: 1.2%
Fbg [4]: 289 mg/dL
Hb [4]: 15.1 g/dL
Ht [4]: 43.5%
Lym [4]: 76.2%
MCH [4]: 20.2 pg
MCHC [4]: 34.8%
MCV [4]: 58.3 fL
Mono [4]: 3.2%
Neu [4]: 18.4%
PT [4]: 12.9 s
Plat [4]: 98.3 x10_4/uL
RBC [4]: 748.2 x10_4/ul
Ret [4]: 2.5%
WBC [4]: 98.7 x10_2/uL
KIDNEY_L [2]: 1.2 g
KIDNEY_R [2]: 1.2 g
KIDNEY_TOTAL [2]: 2.5 g
KIDNEY_L [3]: 1.3 g
KIDNEY_R [3]: 1.2 g
KIDNEY_TOTAL [3]: 2.4 g
KIDNEY_L [4]: 1.4 g
KIDNEY_R [4]: 1.4 g
KIDNEY_TOTAL [4]: 2.9 g
LIVER [2]: 13.1 g
LIVER [3]: 13.9 g
LIVER [4]: 16.1 g
ALP [2]: 1548.4 IU/L
ALT [2]: 43.4 IU/L
AST [2]: 69.8 IU/L
BUN [2]: 14.2 mg/dL
CRE [2]: 0.2 mg/dL
DBIL [2]: 0.012 mg/dL
GLC [2]: 188.4 mg/dL
IP [2]: 7.8 mg/dL
K [2]: 3.8 meq/L
LDH [2]: 64.6 IU/L
Na [2]: 143.2 meq/L
PL [2]: 149.2 mg/dL
RALB [2]: 2.7 g/dL
TBIL [2]: 0.034 mg/dL
TC [2]: 85.4 mg/dL
TG [2]: 86.8 mg/dL
TP [2]: 5.8 g/dL
gamma-GTP [2]: 1 IU/L
ALP [3]: 1377.6 IU/L
ALT [3]: 45.8 IU/L
AST [3]: 72.4 IU/L
BUN [3]: 15.2 mg/dL
CRE [3]: 0.2 mg/dL
DBIL [3]: 0.014 mg/dL
GLC [3]: 197 mg/dL
IP [3]: 6.9 mg/dL
K [3]: 3.7 meq/L
LDH [3]: 79.4 IU/L
Na [3]: 144.6 meq/L
PL [3]: 146.8 mg/dL
RALB [3]: 2.8 g/dL
TBIL [3]: 0.024 mg/dL
TC [3]: 74 mg/dL
TG [3]: 120.8 mg/dL
TP [3]: 6.2 g/dL
gamma-GTP [3]: 1 IU/L
ALP [4]: 1192 IU/L
ALT [4]: 43.2 IU/L
AST [4]: 67 IU/L
BUN [4]: 17 mg/dL
CRE [4]: 0.2 mg/dL
DBIL [4]: 0.022 mg/dL
GLC [4]: 199 mg/dL
IP [4]: 6.5 mg/dL
K [4]: 3.6 meq/L
LDH [4]: 63.8 IU/L
Na [4]: 142.4 meq/L
PL [4]: 151.2 mg/dL
RALB [4]: 2.8 g/dL
TBIL [4]: 0.036 mg/dL
TC [4]: 77.6 mg/dL
TG [4]: 143.2 mg/dL
TP [4]: 6.3 g/dL
gamma-GTP [4]: 1 IU/L
TERMINAL_BW [5]: 254.7 g
APTT [5]: 16 s
Bas [5]: 0%
Eos [5]: 0.8%
Fbg [5]: 279.4 mg/dL
Hb [5]: 13.6 g/dL
Ht [5]: 40.1%
Lym [5]: 77%
MCH [5]: 21.7 pg
MCHC [5]: 33.9%
MCV [5]: 64.1 fL
Mono [5]: 3%
Neu [5]: 18.6%
PT [5]: 13 s
Plat [5]: 116.6 x10_4/uL
RBC [5]: 626.8 x10_4/ul
Ret [5]: 6.8%
WBC [5]: 105.9 x10_2/uL
KIDNEY_L [5]: 1.1 g
KIDNEY_R [5]: 1.1 g
KIDNEY_TOTAL [5]: 2.2 g
LIVER [5]: 11.6 g
ALP [5]: 1517 IU/L
ALT [5]: 42.4 IU/L
AST [5]: 69.8 IU/L
BUN [5]: 15 mg/dL
CRE [5]: 0.2 mg/dL
DBIL [5]: 0.014 mg/dL
GLC [5]: 186.2 mg/dL
IP [5]: 7.4 mg/dL
K [5]: 4 meq/L
LDH [5]: 64.2 IU/L
Na [5]: 143.4 meq/L
PL [5]: 160.8 mg/dL
RALB [5]: 2.7 g/dL
TBIL [5]: 0.026 mg/dL
TC [5]: 87.6 mg/dL
TG [5]: 116.6 mg/dL
TP [5]: 5.9 g/dL
gamma-GTP [5]: 1.2 IU/L
TERMINAL_BW [6]: 288.7 g
TERMINAL_BW [7]: 350.6 g
TERMINAL_BW [8]: 411.6 g
APTT [6]: 17.4 s
Bas [6]: 0%
Eos [6]: 1%
Fbg [6]: 315.6 mg/dL
Hb [6]: 14.1 g/dL
Ht [6]: 40.9%
Lym [6]: 73%
MCH [6]: 21.4 pg
MCHC [6]: 34.6%
MCV [6]: 61.9 fL
Mono [6]: 3.4%
Neu [6]: 22.2%
PT [6]: 12.8 s
Plat [6]: 114.7 x10_4/uL
RBC [6]: 661 x10_4/ul
Ret [6]: 5.1%
WBC [6]: 95.2 x10_2/uL
APTT [7]: 17.7 s
Bas [7]: 0%
Eos [7]: 0.8%
Fbg [7]: 291.6 mg/dL
Hb [7]: 14.5 g/dL
Ht [7]: 41.8%
Lym [7]: 76.4%
MCH [7]: 21.4 pg
MCHC [7]: 34.7%
MCV [7]: 61.5 fL
Mono [7]: 2.8%
Neu [7]: 19.6%
PT [7]: 12.9 s
Plat [7]: 104.8 x10_4/uL
RBC [7]: 679.2 x10_4/ul
Ret [7]: 4.4%
WBC [7]: 86.7 x10_2/uL
APTT [8]: 17.8 s
Bas [8]: 0.4%
Eos [8]: 1.4%
Fbg [8]: 276.4 mg/dL
Hb [8]: 15.5 g/dL
Ht [8]: 44.6%
Lym [8]: 75.6%
MCH [8]: 19.7 pg
MCHC [8]: 34.6%
MCV [8]: 56.9 fL
Mono [8]: 2.6%
Neu [8]: 19.4%
PT [8]: 13.1 s
Plat [8]: 101.1 x10_4/uL
RBC [8]: 785.2 x10_4/ul
Ret [8]: 2.4%
WBC [8]: 108 x10_2/uL
KIDNEY_L [6]: 1.1 g
KIDNEY_R [6]: 1.1 g
KIDNEY_TOTAL [6]: 2.2 g
KIDNEY_L [7]: 1.3 g
KIDNEY_R [7]: 1.3 g
KIDNEY_TOTAL [7]: 2.6 g
KIDNEY_L [8]: 1.4 g
KIDNEY_R [8]: 1.4 g
KIDNEY_TOTAL [8]: 2.8 g
LIVER [6]: 12.4 g
LIVER [7]: 12.9 g
LIVER [8]: 15.8 g
ALP [6]: 1674.4 IU/L
ALT [6]: 45 IU/L
AST [6]: 71.4 IU/L
BUN [6]: 15.4 mg/dL
CRE [6]: 0.2 mg/dL
DBIL [6]: 0.016 mg/dL
GLC [6]: 192.2 mg/dL
K [6]: 3.7 meq/L
LDH [6]: 59.2 IU/L
Na [6]: 143.2 meq/L
PL [6]: 163.2 mg/dL
RALB [6]: 2.7 g/dL
TBIL [6]: 0.024 mg/dL
TC [6]: 89.6 mg/dL
TG [6]: 117.2 mg/dL
TP [6]: 5.9 g/dL
gamma-GTP [6]: 1.2 IU/L
ALP [7]: 1374 IU/L
ALT [7]: 46.4 IU/L
AST [7]: 71.8 IU/L
BUN [7]: 17 mg/dL
CRE [7]: 0.2 mg/dL
DBIL [7]: 0.014 mg/dL
GLC [7]: 191.8 mg/dL
IP [7]: 8 mg/dL
K [7]: 3.8 meq/L
LDH [7]: 57.2 IU/L
Na [7]: 144.4 meq/L
PL [7]: 155.4 mg/dL
RALB [7]: 2.8 g/dL
TBIL [7]: 0.028 mg/dL
TC [7]: 76.8 mg/dL
TG [7]: 131.2 mg/dL
TP [7]: 6.1 g/dL
gamma-GTP [7]: 1.2 IU/L
ALP [8]: 1004.4 IU/L
ALT [8]: 48.8 IU/L
AST [8]: 70.4 IU/L
BUN [8]: 16.6 mg/dL
CRE [8]: 0.2 mg/dL
DBIL [8]: 0.018 mg/dL
GLC [8]: 179.2 mg/dL
IP [8]: 6.8 mg/dL
K [8]: 3.7 meq/L
LDH [8]: 70.6 IU/L
Na [8]: 143.2 meq/L
PL [8]: 151.4 mg/dL
RALB [8]: 2.9 g/dL
TBIL [8]: 0.038 mg/dL
TC [8]: 79.2 mg/dL
TG [8]: 118.2 mg/dL
